The source of these data is ChEMBL document CHEMBL1201862, “PubChem BioAssay data set” (2004).

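Test compounds were applied to cells in 96-well plates for 48 hours at 5 doses. Abbreviation: GI50, concentration required for 50% inhibition of growth.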 Calls of active or inactive are those of the source. Cut-off read from the data, not from the text of the source: active = GI50 up to about 1.1 µM and inactive = higher. Bounds are passed on as bounds.

Among the test systems are 786-0; A549; CAKI-1; COLO 205; DU-145; HCT-116; HOP-92; LOX IMVI; MDA-N; NCI-H23; NCI-H522; NCI/ADR-RES; OVCAR-3; OVCAR-4; PC-3; SF-295; SK-OV-3; SN12C; UO-31.
What all share (test): NCI tumour cell line growth inhibition, 48 h

With `C=C1c2nc3ccccc3n2C=C(c2ccc(C)cc2)N1c1ccccc1`, the GI50 in the assay on 786-0 is 3.48 µM (inactive); in the assay on A549 it was 5.55 µM (inactive); with CAKI-1, 20.5 µM (inactive); in the assay on COLO 205, 3.04 µM (inactive); in the assay on DU-145, 3.9 µM (inactive); in the assay on HCT-116, 2.9 µM (inactive). Also, the GI50 in the assay with HOP-92 is 27.1 µM (inactive); with LOX IMVI it was 5.24 µM (inactive); with MDA-N, 0.508 µM (active); in the assay on NCI-H23, 4.02 µM (inactive); in the assay with NCI-H522, 0.617 µM (active); in the assay with NCI/ADR-RES, 1.79 µM (inactive). Moreover, the GI50 in the assay on OVCAR-3 is 2.38 µM (inactive); in the assay on OVCAR-4, 22.4 µM (inactive); in the assay with PC-3, 2.75 µM (inactive); with SF-295, 1.88 µM (inactive); with SK-OV-3, 7.45 µM (inactive); with SN12C, 6.22 µM (inactive). The GI50 with UO-31 is 9.62 µM (inactive).

Consider `COC(=O)C(CCCCN)NC(=O)C(CCCCN)NC(C)=O.Cc1ccc(C(=O)Nc2ccc(S(=O)(=O)O)c3cc(S(=O)(=O)O)cc(S(=O)(=O)O)c23)cc1NC(=O)c1cccc(NC(=O)Nc2cccc(C(=O)Nc3cc(C(=O)Nc4ccc(S(=O)(=O)O)c5cc(S(=O)(=O)O)cc(S(=O)(=O)O)c45)ccc3C)c2)c1`, for which the GI50 in the assay with 786-0, in the assay on A549, in the assay with CAKI-1, in the assay with COLO 205, with DU-145 and with HCT-116 was > 50 µM (inactive) in each case. Moreover, the GI50 in the assay on HOP-92, with LOX IMVI, in the assay with MDA-N, in the assay on NCI-H23, in the assay on NCI-H522 and in the assay on NCI/ADR-RES was > 50 µM (inactive) throughout. The GI50 in the assay on OVCAR-3 is > 50 µM (inactive); with OVCAR-4, 8.73 µM (inactive); with PC-3, > 50 µM (inactive); in the assay with SF-295, > 50 µM (inactive); in the assay with SK-OV-3, > 50 µM (inactive); in the assay on SN12C it was > 50 µM (inactive). The GI50 in the assay on UO-31 is > 50 µM (inactive).

For the molecule `C[N+]1(CC[N+]2(C)CCCC2c2cccnc2)CCCC1c1cccnc1` (stereo not given), the GI50 was 30.4 µM (inactive) with 786-0; > 100 µM (inactive) in the assay on A549; > 100 µM (inactive) with CAKI-1; 86.1 µM (inactive) in the assay with COLO 205; > 100 µM (inactive) in the assay on DU-145; 96.6 µM (inactive) in the assay with HCT-116. In addition, the GI50 was > 100 µM (inactive) with HOP-92; > 100 µM (inactive) in the assay with LOX IMVI; 32.5 µM (inactive) in the assay on MDA-N; > 100 µM (inactive) with NCI-H23; > 100 µM (inactive) in the assay with NCI-H522; > 100 µM (inactive) in the assay on NCI/ADR-RES. Further, the GI50 in the assay on OVCAR-3, in the assay on OVCAR-4, with PC-3, in the assay with SF-295, in the assay with SK-OV-3 and in the assay with SN12C was > 100 µM (inactive) each time. The GI50 with UO-31 was > 100 µM (inactive).

For the molecule `NN/C(=N\S(=O)(=O)c1cc2ccccc2o1)Nc1ccc(Cl)cc1`, the GI50 with 786-0 is 44 µM (inactive); in the assay with A549, > 100 µM (inactive); in the assay on CAKI-1 it was > 100 µM (inactive); in the assay on COLO 205, > 100 µM (inactive); in the assay with DU-145, > 100 µM (inactive); in the assay on HCT-116, > 100 µM (inactive). The GI50 with HOP-92 is 20.4 µM (inactive); in the assay on LOX IMVI, > 100 µM (inactive); in the assay on MDA-N, > 100 µM (inactive); in the assay with NCI-H23 it was > 100 µM (inactive); in the assay with NCI-H522 it was 24.4 µM (inactive); in the assay on NCI/ADR-RES, > 100 µM (inactive). Moreover, the GI50 is 36.6 µM (inactive) in the assay on OVCAR-3; > 100 µM (inactive) with OVCAR-4; > 100 µM (inactive) in the assay on PC-3; 63.5 µM (inactive) in the assay with SF-295; 42.8 µM (inactive) with SK-OV-3; > 100 µM (inactive) with SN12C. Further, the GI50 in the assay on UO-31 was > 100 µM (inactive).

Regarding `O=C(Nc1ccc(Cl)cc1)c1cc(S(=O)(=O)NC2=Nc3ccc(Cl)cc3C(c3ccccc3)N2)c(SSc2cc(Cl)c(C(=O)Nc3ccc(Cl)cc3)cc2S(=O)(=O)NC2=Nc3ccc(Cl)cc3C(c3ccccc3)N2)cc1Cl` (stereo not given), the GI50 in the assay with 786-0, in the assay with A549, in the assay on CAKI-1, with COLO 205, in the assay on DU-145 and in the assay on HCT-116 was > 100 µM (inactive) in each case. Besides, the GI50 is 83.4 µM (inactive) in the assay with HOP-92; > 100 µM (inactive) in the assay with LOX IMVI; > 100 µM (inactive) in the assay with MDA-N; > 100 µM (inactive) with NCI-H23; > 100 µM (inactive) in the assay with NCI-H522; > 100 µM (inactive) in the assay with NCI/ADR-RES. Also, the GI50 in the assay with OVCAR-3, in the assay with OVCAR-4, in the assay with PC-3, in the assay with SF-295, with SK-OV-3 and in the assay on SN12C was > 100 µM (inactive) each time. Besides, the GI50 in the assay with UO-31 was > 100 µM (inactive).

Take `COc1cc(-c2cc(=O)c3cc4c(=O)cc(-c5cc(OC)c(OC)c(OC)c5)oc4cc3o2)cc(OC)c1OC`: the GI50 in the assay with 786-0 was 14.3 µM (inactive); with A549, 88.9 µM (inactive); in the assay with CAKI-1, 23.2 µM (inactive); in the assay with COLO 205, > 100 µM (inactive); with DU-145, 35.7 µM (inactive); in the assay on HCT-116 it was 30.9 µM (inactive). Moreover, the GI50 is 14.6 µM (inactive) in the assay on HOP-92; 36.1 µM (inactive) with LOX IMVI; > 100 µM (inactive) with MDA-N; 25.8 µM (inactive) in the assay with NCI-H23; 27.4 µM (inactive) in the assay with NCI-H522; 65.9 µM (inactive) with NCI/ADR-RES. For the same molecule, the GI50 in the assay on OVCAR-3 was > 87.1 µM (inactive); with OVCAR-4, > 82.8 µM (inactive); in the assay with PC-3, > 100 µM (inactive); with SF-295 it was 17.5 µM (inactive); with SK-OV-3 it was 18.8 µM (inactive); with SN12C, 32.4 µM (inactive). The GI50 in the assay with UO-31 was > 100 µM (inactive).

On to `COc1cc(/C=C2/C[C@H]3[C@@H]4CC=C5C[C@@H](O)CC[C@]5(C)[C@H]4CC[C@]3(C)NC2=O)cc(OC)c1OC`, for which the GI50 in the assay with 786-0 is 17.7 µM (inactive); in the assay on A549, 15 µM (inactive); in the assay on CAKI-1, 11.9 µM (inactive); with COLO 205 it was > 38.9 µM (inactive); in the assay with DU-145 it was 2.28 µM (inactive); in the assay with HCT-116 it was 22.1 µM (inactive). The GI50 in the assay with HOP-92 is 3.69 µM (inactive); with LOX IMVI, 20 µM (inactive); with MDA-N, 23 µM (inactive); in the assay with NCI-H23 it was 22.1 µM (inactive); in the assay on NCI-H522 it was 5.33 µM (inactive); in the assay on NCI/ADR-RES, 15.8 µM (inactive). For the same molecule, the GI50 in the assay with OVCAR-3 is 28.7 µM (inactive); in the assay with OVCAR-4, 15.1 µM (inactive); with PC-3 it was 18.7 µM (inactive); with SF-295, 19.6 µM (inactive); in the assay on SK-OV-3, 31.6 µM (inactive); in the assay with SN12C it was 7.36 µM (inactive). Moreover, the GI50 in the assay with UO-31 is 9.68 µM (inactive).

As to `O=C(CCSC1=NCCCN1)c1ccc(F)cc1`, the GI50 is 4.02 µM (inactive) with 786-0; 20.4 µM (inactive) in the assay with A549; 17.2 µM (inactive) with CAKI-1; 5.98 µM (inactive) with COLO 205; 17.4 µM (inactive) with DU-145; 20.1 µM (inactive) with HCT-116. Moreover, the GI50 was 20.6 µM (inactive) in the assay on HOP-92; 18.9 µM (inactive) with LOX IMVI; 17.3 µM (inactive) in the assay with MDA-N; 19.4 µM (inactive) in the assay with NCI-H23; 2.08 µM (inactive) with NCI-H522; 28.1 µM (inactive) in the assay on NCI/ADR-RES. For the same molecule, the GI50 was 22.9 µM (inactive) in the assay on OVCAR-3; 21.6 µM (inactive) in the assay on OVCAR-4; 14.9 µM (inactive) in the assay on PC-3; 37.8 µM (inactive) in the assay on SF-295; 21.3 µM (inactive) in the assay on SK-OV-3; 22.2 µM (inactive) in the assay with SN12C. The GI50 in the assay with UO-31 was 5.83 µM (inactive).

Regarding `Cc1ccc2c3c1O[C@H]1c4nc5ccccc5cc4C[C@@]4(O)[C@@H](C2)N(CC2CC2)CC[C@]314`, the GI50 in the assay with 786-0 was 10.8 µM (inactive); in the assay with A549, 6.4 µM (inactive); with CAKI-1, 13.2 µM (inactive); in the assay on COLO 205 it was 5.2 µM (inactive); with DU-145, 14.1 µM (inactive); in the assay with HCT-116 it was 4.54 µM (inactive). For the same molecule, the GI50 was 19.9 µM (inactive) with HOP-92; 4.47 µM (inactive) with LOX IMVI; 11.8 µM (inactive) in the assay with MDA-N; 20.6 µM (inactive) in the assay on NCI-H23; 13.7 µM (inactive) with NCI-H522; 6.44 µM (inactive) in the assay with NCI/ADR-RES. The GI50 with OVCAR-3 was 11.6 µM (inactive); in the assay with OVCAR-4, 13.4 µM (inactive); in the assay with PC-3 it was 3.95 µM (inactive); with SF-295, 7.64 µM (inactive); in the assay on SK-OV-3, 14.1 µM (inactive); in the assay with SN12C it was 28.6 µM (inactive). For the same molecule, the GI50 in the assay with UO-31 is 10.4 µM (inactive).

Take `COCC(=O)OC1CCn2c1nc1c2C(=O)C(C)=C(NC(C)=O)C1=N` (stereo not given): the GI50 in the assay on 786-0 is 3.03 µM (inactive); in the assay with A549, 21.3 µM (inactive); with CAKI-1, 11.2 µM (inactive); in the assay with COLO 205 it was 12.5 µM (inactive); in the assay with DU-145 it was 20.4 µM (inactive); in the assay on HCT-116, 3.08 µM (inactive). Further, the GI50 with HOP-92 was 3.57 µM (inactive); in the assay with LOX IMVI, 2.53 µM (inactive); in the assay on MDA-N, 1.82 µM (inactive); in the assay with NCI-H23, 4.34 µM (inactive); with NCI-H522, 5.01 µM (inactive); with NCI/ADR-RES, 3.99 µM (inactive). Besides, the GI50 with OVCAR-3 is 2.03 µM (inactive); in the assay on OVCAR-4, 2.19 µM (inactive); in the assay with PC-3 it was 2.58 µM (inactive); in the assay with SF-295, 16.1 µM (inactive); with SK-OV-3 it was 17.7 µM (inactive); in the assay with SN12C it was 3.72 µM (inactive). The GI50 with UO-31 was 11.6 µM (inactive).
